Source: PMC9471048, “The signaling and selectivity of α‐adrenoceptor agonists for the human α2A, α2B and α2C‐adrenoceptors and comparison with human α1 and β‐adrenoceptors” (Pharmacology Research & Perspectives, 2022)
Where two headings read alike, the source gives them in different places.

Legend:
[1] = target: T1, human α2C‐adrenoceptor (Homo sapiens, UniProt P18825); assay: 3H‐rauwolscine whole cell binding in CHO‐α2C cells; design: expressed in transfected cells; host or cells: CHO-K1 with CRE-SPAP reporter
T1 sequence (P18825 1-462): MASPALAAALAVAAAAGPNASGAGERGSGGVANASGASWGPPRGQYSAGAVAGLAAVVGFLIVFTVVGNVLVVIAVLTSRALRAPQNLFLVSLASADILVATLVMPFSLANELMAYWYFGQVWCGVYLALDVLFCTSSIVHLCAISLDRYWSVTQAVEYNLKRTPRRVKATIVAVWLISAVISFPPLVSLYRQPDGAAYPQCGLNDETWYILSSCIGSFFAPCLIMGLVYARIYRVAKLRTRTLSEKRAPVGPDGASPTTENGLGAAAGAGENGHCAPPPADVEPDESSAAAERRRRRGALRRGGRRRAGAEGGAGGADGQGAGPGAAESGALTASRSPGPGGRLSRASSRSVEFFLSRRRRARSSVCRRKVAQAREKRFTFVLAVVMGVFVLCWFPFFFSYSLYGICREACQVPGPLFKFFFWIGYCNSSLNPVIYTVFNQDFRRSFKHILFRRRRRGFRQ

[2] = target: T1, human α2C‐adrenoceptor
[3] = target: T2, human α2A‐adrenoceptor (Homo sapiens, UniProt P08913)
T2 sequence (P08913 1-465): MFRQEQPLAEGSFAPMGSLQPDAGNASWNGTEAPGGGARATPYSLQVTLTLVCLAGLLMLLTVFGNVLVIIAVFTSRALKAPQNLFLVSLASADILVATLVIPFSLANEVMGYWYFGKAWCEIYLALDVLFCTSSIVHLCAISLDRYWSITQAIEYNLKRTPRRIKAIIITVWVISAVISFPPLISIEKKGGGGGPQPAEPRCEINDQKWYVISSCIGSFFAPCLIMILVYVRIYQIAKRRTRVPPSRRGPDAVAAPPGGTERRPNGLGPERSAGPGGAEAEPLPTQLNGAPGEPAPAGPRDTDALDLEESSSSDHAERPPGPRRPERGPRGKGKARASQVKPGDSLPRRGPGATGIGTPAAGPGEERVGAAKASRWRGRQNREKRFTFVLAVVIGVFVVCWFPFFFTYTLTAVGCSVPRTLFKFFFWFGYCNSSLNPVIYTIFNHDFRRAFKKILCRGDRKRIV

[4] = target: T2, human α2A‐adrenoceptor; assay: 3H‐rauwolscine whole cell binding in CHO‐α2A cells; design: expressed in transfected cells; host or cells: CHO-K1 with CRE-SPAP reporter
[5] = target: T1, human α2C‐adrenoceptor; assay: ERK1/2‐phosphorylation in CHO‐α2C cells; format: cell-based; design: expressed in transfected cells; host or cells: CHO-K1 with CRE-SPAP reporter
[6] = CHO‐α2C cells, CRE‐SPAP production in the absence of forskolin
[7] = CHO‐α2C cells, maximum response compared to 10 μM PDBu, mean ± SEM
[8] = CHO‐α2C cells, given as negative log EC50, mean ± SEM
[9] = CHO‐α2C cells, 3H‐rauwolscine whole cell binding, given as negative log KD, mean only (SEM in Table 4)
[10] = CHO‐α2C cells, % inhibition from the 3 μM forskolin control, mean ± SEM
[11] = CHO‐α2C cells, inhibition of 3 μM forskolin‐stimulated CRE‐SPAP production, given as negative log IC50, mean ± SEM

| Structure (SMILES) | Log IC50 (Gi), CRE‐SPAP (with forskolin) [2] | Log EC50 (Gs), CRE‐SPAP (without forskolin) [2, 6] | Log efficacy ratio (KD/IC50) [2] | % 10 μM PDBu, ERK1/2‐phosphorylation [5, 7] [%] | Log EC50, ERK1/2‐phosphorylation [5, 8] | Log KD [1, 9] | % inhibition, CRE‐SPAP (with forskolin) [2, 10] [%] | Log IC50 (Gi), CRE‐SPAP (with forskolin) [2, 11] | other results |
| --- | --- | --- | --- | --- | --- | --- | --- | --- | --- |
| OCc1cc(C(O)CNCCCCCCOCCCCc2ccccc2)ccc1O (centres unmarked) [Salmeterol] | No response | No response | – | – | – | – | – | – | Kd ([1]; CHO‐α2C cells, 3H‐rauwolscine whole cell binding, given as negative log KD, mean only (SEM in Table 4), read-out: Log KD (converted)): 5.25 µM; Log EC50 (Gs), CRE‐SPAP (without forskolin) ([3]; CHO‐α2A (cell line 1), absence of forskolin): No response; Log IC50 (Gi), CRE‐SPAP (with forskolin) ([3]; CHO‐α2A (cell line 1, 5830 fmol/mg protein), 3 μM forskolin): No response; Kd ([4]; read-out: Log KD (binding) (converted)): 17.4 µM |
| C=CCN1CCc2nc(N)sc2CC1 [BHT920] | −7.41 ± 0.10 | – | 1.42 | – | – | – | – | – | % 10 μM PDBu, ERK1/2‐phosphorylation [5]: 144.8 ± 23.2%; Log EC50, ERK1/2‐phosphorylation [5]: −8.18 ± 0.12; Log KD [1]: −5.99; % inhibition, CRE‐SPAP (with forskolin) [2]: 86.8 ± 6.0%; Log EC50 (Gs), CRE‐SPAP (without forskolin) [2]: No response |
| COC(=O)[C@@H]1[C@H]2C[C@H]3c4[nH]c5ccccc5c4CCN3C[C@@H]2CC[C@@H]1O [yohimbine] | – | – | – | – | – | – | – | – | Schild slope (Gi), dexmedetomidine as agonist [3]: 1.11 ± 0.07; Schild slope, inhibitory (Gi) component [3]: 1.00 ± 0.08; Schild slope, stimulatory (Gs) component [3]: 0.92 ± 0.11 |
| COc1ccc(CC(C)NCC(O)c2ccc(O)c(NC=O)c2)cc1 (centres unmarked) [Formoterol] | No response | – | – | – | – | – | – | – | IC50 [1]: > 100 µM; IC50 ([1]; read-out: IC50 in binding, CHO‐α2C): > 100 µM; Log EC50 (Gs), CRE‐SPAP (without forskolin) [2]: No response; Log EC50 (Gs), CRE‐SPAP (without forskolin) [3]: No response; Log IC50 (Gi), CRE‐SPAP (with forskolin) [3]: No response; IC50 [4]: > 100 µM; IC50 ([4]; read-out: IC50 in binding, CHO‐α2A): > 100 µM |
| Cc1sc(C)c2c1CCC=C2c1cnc[nH]1.O=C(O)/C=C\C(=O)O [T‐CG 1000] | – | No response | −0.63 | 87.5 ± 14.2 | −7.05 ± 0.14 | −6.75 | 50.2 ± 5.1 | −6.12 ± 0.05 | – |
| CNC[C@H](O)c1cccc(O)c1 [R‐phenylephrine] | – | – | – | – | – | – | – | – | % 10 μM PDBu, ERK1/2‐phosphorylation [5]: 157.0 ± 15.4%; % inhibition, CRE‐SPAP (with forskolin) [2]: 77.5 ± 3.4% |
| C1=C(c2cnc[nH]2)c2ccsc2CC1 [RWJ52353] | – | No response | 1.80 | 143.5 ± 14.0 | −7.74 ± 0.09 | −4.67 | 76.5 ± 5.6 | −6.47 ± 0.10 | Log KD (apparent), CHO‐α2C ([1]; 3H‐rauwolscine whole cell binding, ^app: apparent KD, IC50 from extrapolated curve as not all specific binding was inhibited): −4.67 ± 0.08^app |
| CC(C)NCC(O)c1ccc(O)c(O)c1 (centres unmarked) [Isoprenaline] | – | – | – | – | – | – | – | – | % 10 μM PDBu, ERK1/2‐phosphorylation [5]: 130.7 ± 11.1%; % inhibition, CRE‐SPAP (with forskolin) [2]: 95.0 ± 5.2% |
| CC(Cc1ccc(O)cc1)NCC(O)c1cc(O)cc(O)c1 (centres unmarked) [Fenoterol] | No response | – | – | – | – | – | – | – | Kd ([1]; Log KD): 151 µM; Kd ([1]; Log KD (apparent), CHO‐α2C): 151 µM; Log EC50 (Gs), CRE‐SPAP (without forskolin) [2]: No response; Log EC50 (Gs), CRE‐SPAP (without forskolin) [3]: No response; Log IC50 (Gi), CRE‐SPAP (with forskolin) [3]: No response; Kd ([4]; Log KD (apparent), CHO‐α2A): 347 ± 5.01 µM; Kd ([4]; Log KD (binding)): 347 µM |
| CCc1cccc(CC)c1NC1=NCCN1 [ST‐91] | – | No response | 1.28 | 154.0 ± 15.0 | −7.93 ± 0.17 | −6.18 | 76.5 ± 4.4 | −7.46 ± 0.09 | – |
| CCN1CCc2nc(N)oc2CC1 [BHT933] | – | No response | 0.62 | 150.0 ± 19.7 | −6.63 ± 0.18 | −5.32 | 86.0 ± 4.6 | −5.94 ± 0.08 | – |
